Patent US8592421B2, “Cyclic bioisosters of purine system derivatives and a pharmaceutical composition based thereon” (priority 2003, dated 2013)

Assays:
[1] = Electrochemical activity: polarographic reduction on mercury dripping electrode; assay type: physicochemical; details: for number of electrons participating in the reduction reaction: calculated with Geirovsky-Ilkovich equation; for i: 2.0% sodium chloride background, 9·10^−4 M; for i / −E1/2: 37° C., forward trace, average for the group of compounds; for −E1/2: vs SCE; for half-wave potential more positive at reverse stroke compared to forward stroke: polarograms of reverse stroke
Protocol: The study was carried out on a general-purpose polarograph PU-1 with a two-coordinate recorder of the “LKD” type using a three-electrode thermostatically controlled polarographic cell and mercury dripping electrode (MDE) with forced separation of the drop and a dropping period of 0.5 second. A platinum wire was used as an auxiliary electrode and a saturated calomel electrode (SCE) was used as a control electrode.
2.0% solutions of sodium chloride having pH 7.0, 7.2, 7.4, 7.6 were used as a background; the pH values of the background solution were corrected by a solution of sodium hydroxide. The polarographic cell was filled with 5.0 ml of the background solution and for 5 minutes was purged with nitrogen for removing the dissolved oxygen. Then 0.5 ml of solution of the studied substance was added to the background solution, and the polarogram was recorded as a polarographic wave. The concentration of the compounds in the polarographic cell was 9·10^−4 M.
The pH was measured on the pH-meter with an accuracy of +0.05 pH units. The polarographic measurements were carried out at a temperature of 37° C. The recording of polarograms of the investigated materials was effected under conditions of DC current at a scanning rate of the potential 10.0 mV/s with a active scanning stroke from a potential 0 to −0.5 V and sweep retrace from a −0.5 V to 0. The electric-current sensitivity was 5.0 mkA. The scale by the coordinate of the potentials was 50.0 mV/cm. The values of potentials of the half-wave E1/2 of the investigated materials are given with respect to the SCE potential.
The polarogram parameters such as a limiting current ilim and E1/2 were determined by the graphic method. The number of electrons participating in the reaction was calculated on the basis of the analysis of the polarographic wave using the Geirovsky-Ilkovich equation.
The calculation of the number of electrons participating in the reduction reaction was effected using the Geirovsky-Ilkovich equation: […]

[2] = Chronic toxicity of suppositories: indexes of peripheral blood; assay type: in vivo, rats; parameters: Thrombocytes: unit not given here; details: male rats, suppositories rectally; for Basophiles / Juveniles: 1 month/2 months (one value given), control 0

O=c1[nH]n([C@@H]2O[C@H](CO)[C@@H](O)[C@H]2O)c(=O)c2ncccc12.[Na] [Compound 1, sodium salt of 7-(β-O-ribofuranosile)pyrido[2,3-1]-6H-pyridazine-5,8-dione sodium salt]
number of electrons participating in the reduction reaction [1]: 3.72 | i ([1]; pH 7.0): 0.26 ± 0.04 mkA | −E1/2 ([1]; pH 7.0): 0.11 ± 0.02 V | i ([1]; pH 7.2): 0.31 ± 0.02 mkA | −E1/2 ([1]; pH 7.2): 0.11 ± 0.03 V | i ([1]; pH 7.4): 0.27 ± 0.03 mkA | −E1/2 ([1]; pH 7.4): 0.105 ± 0.01 V | i ([1]; pH 7.6): 0.30 ± 0.01 mkA | −E1/2 ([1]; pH 7.6): 0.105 ± 0.02 V | half-wave potential more positive at reverse stroke compared to forward stroke [1]: 25.0 mV

O=c1[nH][nH]c(=O)c2nccnc12.[Na] [Compound 26, sodium salt of pyrazine[2,3-d]-6H-pyridazine-5,8-dione]
half-wave potential more positive at reverse stroke compared to forward stroke [1]: 27.0 mV

O=c1[nH]n([C@@H]2O[C@H](CO)[C@@H](O)[C@H]2O)c(=O)c2ncnc(O)c12.[Na] [Compound 33, sodium salt of 4-hydroxy-7-(β-D-ribofuranosile)pyrimido[4,5-d]-6H-pyridazine-5,8-dione]
number of electrons participating in the reduction reaction [1]: 3.5 | i ([1]; pH 7.0): 0.30 ± 0.05 mkA | −E1/2 ([1]; pH 7.0): 0.08 ± 0.02 V | i ([1]; pH 7.2): 0.26 ± 0.02 mkA | −E1/2 ([1]; pH 7.2): 0.085 ± 0.015 V | i ([1]; pH 7.4): 0.30 ± 0.03 mkA | −E1/2 ([1]; pH 7.4): 0.085 ± 0.02 V | i ([1]; pH 7.6): 0.30 ± 0.02 mkA | −E1/2 ([1]; pH 7.6): 0.09 ± 0.02 V | half-wave potential more positive at reverse stroke compared to forward stroke [1]: 27.0 mV

O=C([O-])c1ncnc2c(=O)n([C@@H]3O[C@H](CO)[C@@H](O)[C@H]3O)[nH]c(=O)c12.[Na+] [Compound 34, sodium salt of 4-carboxy-7-(β-D-ribofuranosile)pyrimido[4,5-D]-6H-pyridazine-5,8-dione]
Basophiles ([2]; 50 mg/kg): 0% | Juveniles ([2]; 50 mg/kg): 0% | Stab neutrophil ([2]; 50 mg/kg, 1 month, control 0.8 ± 0.4): 1.0 ± 0.4% | REE ([2]; 50 mg/kg, 1 month, control 2.2 ± 0.4): 1.8 ± 0.5 mm/h | Reticulocytes ([2]; 50 mg/kg, 1 month, control 2.8%0.3): 2.7 ± 0.1% | Eosinophiles ([2]; 50 mg/kg, 1 month, control 4.0 + 0.3): 3.5 ± 1.0% | Erythrocytes ([2]; 50 mg/kg, 1 month, control 5.6 ± 0.1): 5.6 ± 0.1 mln/mm^3 | Hemoglobin ([2]; 50 mg/kg, 1 month, control 10.5 ± 0.2): 10.6 ± 0.1 mmol/L | Leukocyte ([2]; 50 mg/kg, 1 month, control 17.4 ± 1.3): 15.9 ± 1.3 thousand/mm^3 | Haematocrite ([2]; 50 mg/kg, 1 month, control 45.9 ± 1.7): 46.9 ± 1.1% | Average volume of erythrocytes ([2]; 50 mg/kg, 1 month, control 81.4 ± 1.7): 81.6 ± 1.9 Mkm^3 | Coagulation, time ([2]; 50 mg/kg, 1 month, control 152 ± 10.2): 148 ± 16 s | Thrombocytes ([2]; 50 mg/kg, 1 month, control 707 ± 23): 670 ± 23 | REE ([2]; 50 mg/kg, 2 months, control 1.4 ± 0.2): 1.7 ± 0.3 mm/h | Stab neutrophil ([2]; 50 mg/kg, 2 months, control 2.4 ± 0.4): 1.8 ± 0.5% | Reticulocytes ([2]; 50 mg/kg, 2 months, control 2.9 ± 0.2): 2.9 ± 0.2% | Eosinophiles ([2]; 50 mg/kg, 2 months, control 4.4 + 1.2): 4.1 ± 0.4% | Erythrocytes ([2]; 50 mg/kg, 2 months, control 6.1 ± 0.1): 6.1 ± 0.2 mln/mm^3 | Hemoglobin ([2]; 50 mg/kg, 2 months, control 11.4 ± 0.2): 11.1 ± 0.2 mmol/L | Leukocyte ([2]; 50 mg/kg, 2 months, control 19.1 ± 1.9): 17.8 ± 1.4 thousand/mm^3 | Haematocrite ([2]; 50 mg/kg, 2 months, control 45.9 ± 1.8): 47.5 ± 1.2% | Average volume of erythrocytes ([2]; 50 mg/kg, 2 months, control 74.6 + 1.9): 76.7 ± 1.9 Mkm^3 | Coagulation, time ([2]; 50 mg/kg, 2 months, control 316 ± 8): 321 ± 10 s | Thrombocytes ([2]; 50 mg/kg, 2 months, control 593 ± 14): 610 ± 15 | Basophiles ([2]; 500 mg/kg): 0% | Juveniles ([2]; 500 mg/kg): 0% | Stab neutrophil ([2]; 500 mg/kg, 1 month, control 0.8 ± 0.4): 0.9 ± 0.2% | REE ([2]; 500 mg/kg, 1 month, control 2.2 ± 0.4): 2.0 ± 0.4 mm/h | Reticulocytes ([2]; 500 mg/kg, 1 month, control 2.8%0.3): 3.2 ± 0.2% | Eosinophiles ([2]; 500 mg/kg, 1 month, control 4.0 + 0.3): 3.0 ± 0.9% | Erythrocytes ([2]; 500 mg/kg, 1 month, control 5.6 ± 0.1): 5.6 ± 0.2 mln/mm^3 | Hemoglobin ([2]; 500 mg/kg, 1 month, control 10.5 ± 0.2): 10.6 ± 0.3 mmol/L | Leukocyte ([2]; 500 mg/kg, 1 month, control 17.4 ± 1.3): 16.9 ± 1.0 thousand/mm^3 | Haematocrite ([2]; 500 mg/kg, 1 month, control 45.9 ± 1.7): 48.1 ± 1.5% | Average volume of erythrocytes ([2]; 500 mg/kg, 1 month, control 81.4 ± 1.7): 84.1 ± 1.3 Mkm^3 | Thrombocytes ([2]; 500 mg/kg, 1 month, control 707 ± 23): 682 ± 24 | REE ([2]; 500 mg/kg, 2 months, control 1.4 ± 0.2): 1.8 ± 0.2 mm/h | Stab neutrophil ([2]; 500 mg/kg, 2 months, control 2.4 ± 0.4): 1.4 ± 0.3% | Reticulocytes ([2]; 500 mg/kg, 2 months, control 2.9 ± 0.2): 3.5 ± 0.3% | Eosinophiles ([2]; 500 mg/kg, 2 months, control 4.4 + 1.2): 3.9 ± 1.4% | Erythrocytes ([2]; 500 mg/kg, 2 months, control 6.1 ± 0.1): 6.6 ± 0.1 mln/mm^3 | Hemoglobin ([2]; 500 mg/kg, 2 months, control 11.4 ± 0.2): 12.4 ± 0.4 mmol/L | Leukocyte ([2]; 500 mg/kg, 2 months, control 19.1 ± 1.9): 22.1 ± 1.1 thousand/mm^3 | Haematocrite ([2]; 500 mg/kg, 2 months, control 45.9 ± 1.8): 53.1 ± 1.6% | Average volume of erythrocytes ([2]; 500 mg/kg, 2 months, control 74.6 + 1.9): 83.8 ± 1.5 Mkm^3 | Coagulation, time ([2]; 500 mg/kg, 2 months, control 316 ± 8): 312 ± 9 s | Thrombocytes ([2]; 500 mg/kg, 2 months, control 593 ± 14): 631 ± 26

COP(=O)(OC)C(C)(C)CC(C)=O [Dimesphosphon, dimethyl ester of 1,1-dimethyl-3-oxybuthyl of phosphonic acid, reference compound]
number of electrons participating in the reduction reaction [1]: 1.6 | electrons consumed during the reduction ([1]; conclusion from calculated number): 2 | i ([1]; pH 7.0): 0.10 ± 0.03 mkA | −E1/2 ([1]; pH 7.0): 0.175 ± 0.01 V | i ([1]; pH 7.2): 0.12 ± 0.03 mkA | −E1/2 ([1]; pH 7.2): 0.17 ± 0.02 V | i ([1]; pH 7.4): 0.11 ± 0.02 mkA | −E1/2 ([1]; pH 7.4): 0.18 ± 0.01 V | i ([1]; pH 7.6): 0.11 ± 0.02 mkA | −E1/2 ([1]; pH 7.6): 0.18 ± 0.01 V | half-wave potential more positive at reverse stroke compared to forward stroke [1]: 50.0 mV

disodium salt of 3-κapõoκcℏ-7-(β-D-ribofuranosile)pyrido[2,3-d]-6H-pyridazine-5,8-dione [Compound 5]
number of electrons participating in the reduction reaction [1]: 3.72 | i ([1]; pH 7.0): 0.26 ± 0.04 mkA | −E1/2 ([1]; pH 7.0): 0.11 ± 0.02 V | i ([1]; pH 7.2): 0.31 ± 0.02 mkA | −E1/2 ([1]; pH 7.2): 0.11 ± 0.03 V | i ([1]; pH 7.4): 0.27 ± 0.03 mkA | −E1/2 ([1]; pH 7.4): 0.105 ± 0.01 V | i ([1]; pH 7.6): 0.30 ± 0.01 mkA | −E1/2 ([1]; pH 7.6): 0.105 ± 0.02 V | half-wave potential more positive at reverse stroke compared to forward stroke [1]: 25.0 mV

potassium salt of 3-bromine-pyrazine[2,3-Cl]-6H-pyridazine-5,8-dione [Compound 27]
number of electrons participating in the reduction reaction [1]: 3.72 | i ([1]; pH 7.0): 0.32 ± 0.03 mkA | −E1/2 ([1]; pH 7.0): 0.16 ± 0.02 V | i ([1]; pH 7.2): 0.33 ± 0.04 mkA | −E1/2 ([1]; pH 7.2): 0.19 ± 0.02 V | i ([1]; pH 7.4): 0.34 ± 0.03 mkA | −E1/2 ([1]; pH 7.4): 0.175 ± 0.01 V | i ([1]; pH 7.6): 0.34 ± 0.02 mkA | −E1/2 ([1]; pH 7.6): 0.16 ± 0.015 V | half-wave potential more positive at reverse stroke compared to forward stroke [1]: 20.0 mV
